In brackets after ≈: the same amount, converted by molar mass. Read-outs that look alike come from different tables or passages of the source.
Experiments:
Assay type in all cases: cell-based
[1] = test system: spores of ATCC 43255 strain; assay: Inhibition of germination of C. difficile spores (MIC), strain ATCC 43255; conditions: Clostridioides difficile, ATCC43255, 1 h, read-out: MIC (minimum concentration that completely inhibits spore germination)
Experimental: (§1) According to a method disclosed in “The Journal of Infectious Diseases. 2013; 207: 1498-504”, spores of ATCC BBA1870, ATCC 43255 and ATCC 630 strains were obtained by culture and purification, and stored at 4° C.
(§2) Spore preparation: the C. difficile spores stored at 4° C. were heat-activated for 30 min at 65° C., centrifuged at 9,400 g for 2 min, and washed three times to remove any self-germinating spores.
(§3) Control drug: three cholic acid derivatives, a compound CamSA, a compound 20β (prepared by the method of “Journal of Medicinal Chemistry. 2017, 60 (8): 3451-3471”), and a compound 12a (prepared by the method of “Journal of Medicinal Chemistry. 2018, 61, 6759-6778”), were used as control drugs.
(§4) Compound preparation: the compound of the present disclosure, and the positive control drugs CamSA, 20β, and 12a were dissolved in DMSO, to prepare a stock solution with a concentration of 10 mM (prepared for immediate use).
(§5) The detection was conducted in a 96-well cell culture plate at a constant temperature of 37° C.; a final volume of each well of the 96-well plate was […] and a buffer was the BHIS medium; 150 μl of spores and drugs were added to the well in advance, and 50 μl of 4 mg/ml sodium taurocholate was added; OD580 was detected every 1 min immediately using a microplate reader, for continuously 60 min. A germination agent control group and a non-germination group were set up; after the detection, a final OD value of each well was compared with an initial value, and compared with the germination agent group to calculate a germination rate and an inhibition rate. A formula for the germination rate was:
(§6) Inhibition rate=100%−germination rate.

[2] = test system: spores of ATCC BBA1870 strain; assay: Inhibition of germination of C. difficile spores (MIC), strain ATCC BBA1870; conditions: Clostridioides difficile, ATCCBBA1870STRAIN, 1 h, read-out: MIC (minimum concentration that completely inhibits spore germination)
Experimental: as §1, §2, §3, §4, §5, §6

[3] = test system: spores of ATCC 630 strain; assay: Inhibition of germination of C. difficile spores (MIC), strain ATCC 630; conditions: Clostridioides difficile, ATCC630, 1 h, read-out: MIC (minimum concentration that completely inhibits spore germination)
Experimental: as §1, §2, §3, §4, §5, §6

[4] = strain 43255, sodium taurocholate as germinant, BHIS medium, 37° C., OD580 for 60 min
[5] = strain 1870, sodium taurocholate as germinant, BHIS medium, 37° C., OD580 for 60 min
[6] = strain 630, sodium taurocholate as germinant, BHIS medium, 37° C., OD580 for 60 min

Structure (SMILES) | MIC [1, 4] [µM] | MIC [2, 5] [µM] | MIC [3, 6] [µM] | MIC [1] [µM] | MIC [2] [µM] | MIC [3] [µM]
CC[C@@H](NC(=O)C[C@@H](C)[C@H]1CC[C@H]2[C@@H]3[C@H](O)[C@H](O)[C@@H]4CC(=O)CC[C@]4(C)[C@H]3CC[C@]12C)c1ccc(Cl)s1 [Compound I-123] | 64 (≈ 35.2 µg/mL) | 64 (≈ 35.2 µg/mL) | 64 (≈ 35.2 µg/mL) | – | – | –
CC(C)[C@@H](NC(=O)C[C@@H](C)[C@H]1CC[C@H]2[C@@H]3[C@H](OP(=O)(O)O)C[C@@H]4CC(=O)CC[C@]4(C)[C@H]3CC[C@]12C)c1ccc(Br)s1 [Compound I-194] | 64 (≈ 43.1 µg/mL) | 64 (≈ 43.1 µg/mL) | 64 (≈ 43.1 µg/mL) | – | – | –
CC(C)[C@@H](NC(=O)C[C@@H](C)[C@H]1CC[C@H]2[C@@H]3[C@H](O)C[C@@H]4CC(=O)CC[C@]4(C)[C@H]3CC[C@]12C)c1cccs1 [Compound I-136] | 1 (≈ 0.514 µg/mL) | 1 (≈ 0.514 µg/mL) | 1 (≈ 0.514 µg/mL) | – | – | –
CC[C@@H](NC(=O)C[C@@H](C)[C@H]1CC[C@H]2[C@@H]3C(=O)C[C@@H]4CC(=O)CC[C@]4(C)[C@H]3CC[C@]12C)c1ccccc1 [Compound I-60] | – | – | – | 2 (≈ 0.983 µg/mL) | 2 (≈ 0.983 µg/mL) | 2 (≈ 0.983 µg/mL)
CC(C)C(NC(=O)C[C@@H](C)[C@H]1CC[C@H]2[C@@H]3[C@H](O)C[C@@H]4CC(=O)CC[C@]4(C)[C@H]3CC[C@]12C)c1cccs1 (stereo partly drawn) [Compound I-134] | 2 (≈ 1.03 µg/mL) | 2 (≈ 1.03 µg/mL) | 2 (≈ 1.03 µg/mL) | – | – | –
C[C@H](NC(=O)C[C@@H](C)[C@H]1CC[C@H]2[C@@H]3C(=O)C[C@@H]4CC(=O)CC[C@]4(C)[C@H]3CC[C@]12C)c1cccs1 [Compound I-28] | > 256 | > 256 | > 256 | – | – | –
C[C@H](CC(=O)NC(c1cccs1)C1CCCC1)[C@H]1CC[C@H]2[C@@H]3C(=O)C[C@@H]4CC(=O)CC[C@]4(C)[C@H]3CC[C@]12C (stereo partly drawn) [Compound I-53] | 32 (≈ 17.2 µg/mL) | 32 (≈ 17.2 µg/mL) | 32 (≈ 17.2 µg/mL) | – | – | –
C[C@H](CC(=O)NCc1ccco1)[C@H]1CC[C@H]2[C@@H]3[C@H](O)C[C@@H]4C[C@H](O)CC[C@]4(C)[C@H]3CC[C@]12C [Compound I-2] | 8 (≈ 3.66 µg/mL) | 16 (≈ 7.32 µg/mL) | 8 (≈ 3.66 µg/mL) | – | – | –
C[C@H](CC(=O)NCc1ccccn1)[C@H]1CC[C@H]2[C@@H]3C(=O)C[C@@H]4C[C@H](O)CC[C@]4(C)[C@H]3CC[C@]12C [Compound I-16] | 256 (≈ 119 µg/mL) | 256 (≈ 119 µg/mL) | 256 (≈ 119 µg/mL) | – | – | –
C[C@H](CC(=O)NCc1cccs1)[C@H]1CC[C@H]2[C@@H]3C(=O)C[C@@H]4C[C@H](O)CC[C@]4(C)[C@H]3C[C@H](O)[C@]12C [Compound I-20] | 32 (≈ 15.6 µg/mL) | 64 (≈ 31.2 µg/mL) | 32 (≈ 15.6 µg/mL) | – | – | –
CC[C@@H](NC(=O)C[C@@H](C)[C@H]1CC[C@H]2[C@@H]3[C@H](O)C[C@@H]4C[C@H](O)CC[C@]4(C)[C@H]3C[C@H](O)[C@]12C)c1ccc(Cl)s1 [Compound I-145] | 32 (≈ 17.7 µg/mL) | 32 (≈ 17.7 µg/mL) | 16 (≈ 8.84 µg/mL) | – | – | –
CC[C@@H](NC(=O)C[C@@H](C)[C@H]1CC[C@H]2[C@@H]3C(=O)C[C@@H]4CC(=O)CC[C@]4(C)[C@H]3CC[C@]12C)c1ccc(C(=O)CCCCCCC(=O)O)s1 [Compound I-205] | 128 (≈ 83.7 µg/mL) | 128 (≈ 83.7 µg/mL) | 128 (≈ 83.7 µg/mL) | – | – | –
CC[C@@H](NC(=O)C[C@@H](C)[C@H]1CC[C@H]2[C@@H]3[C@@H](O)C[C@@H]4C[C@H](O)CC[C@]4(C)[C@H]3CC[C@]12C)c1ccc(Cl)s1 [Compound I-141] | 32 (≈ 17.2 µg/mL) | 32 (≈ 17.2 µg/mL) | 32 (≈ 17.2 µg/mL) | – | – | –
CC(C)[C@H](NC(=O)C[C@@H](C)[C@H]1CC[C@H]2[C@@H]3[C@H](O)C[C@@H]4CC(=O)CC[C@]4(C)[C@H]3CC[C@]12C)c1cccs1 [Compound I-135] | > 256 | > 256 | > 256 | – | – | –

— patent publication US20230135729A1, “COMPOUND WITH ANTI-SPORE ACTIVITY AND PHARMACEUTICAL COMPOSITION THEREOF” (priority 2020, published 2023)
